Test results from patent US20250074911A1, “MACROCYCLIC BTK INHIBITORS” (Crossfire Oncology Holding B.V., priority 2021, published 2025).

Columns and labels:
[1] = target: full-length wt-BTK enzyme (Homo sapiens (Human), UniProt Q06187); experiment: Biochemical kinase assay wt-BTK (IMAP)
How it was run: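 IMAP fluorescence polarization assay: 1.2 nM enzyme pre-incubated 1 h with compound at room temperature, then 50 nM fluorescein-labeled MBP-derived peptide and 4 μM ATP added. Reaction ran 2 h at room temperature in the dark before quenching with IMAP binding solution.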

[2] = target: full-length BTK C481S enzyme (Homo sapiens (Human), UniProt Q06187, C481S); experiment: Biochemical kinase assay BTK C481S (IMAP)
How it was run: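 Full-length BTK C481S (1.2 nM) was pre-incubated with compound for 1 h at room temperature in the dark, then reacted with fluorescein-labelled MBP-derived peptide (50 nM) and ATP (7 μM) for 2 h. Reactions were quenched with IMAP binding solution, and IC50 values were derived from fluorescence polarization.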

[3] = system: wt-REC-1 mantle cell lymphoma cells; experiment: Cell proliferation assay wt-REC-1 (ATPlite, 72 hours); type: cell-based; details: 72 h; read-out: IC50 wt-REC-1
How it was run: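 Luminescent viability read over 72 h, start-of-incubation signal recorded separately to separate growth from cell death. Percentage growth referenced to compound-free 0.3% DMSO wells; IC50 from 4-parameter logistic fit.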

[4] = system: REC-1 T474I cell lines; experiment: Cell proliferation assay REC-1 BTK T474I knock-in cells (ATPlite, 72 hours); type: cell-based; details: Homo sapiens, Rec1; 72 hours; read-out: IC50 REC-1 T474I
How it was run: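 REC-1 cells carrying CRISPR knock-in mutant BTK, single-cell cloned and sequence-confirmed, were exposed to compound for 72 h and read by ATPlite luminescence. Percentage growth was calculated against the signal at the start of incubation and against untreated 0.3% DMSO wells as maximum growth.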

[5] = system: wt-TMD8 diffuse large B-cell lymphoma cells; experiment: Cell proliferation assay wt-TMD8 (ATPlite, 120 hours); type: cell-based; details: B-cell; wt-TMD8 cells, 120 hours, ATPlite; read-out: IC50 wt-TMD8
Experimental: Cell proliferation assay wt-TMD8 diffuse large B-cell lymphoma cells were purchased from Tokyo Medical and Dental University and cultured in RPMI-1640 cell culture medium (cat. no. 61870036, Life Technologies), supplemented with 10% (v/v) heat-inactivated fetal bovine calf serum and 1% penicillin/[…]. 1600 cells per well (in 45 μl) were seeded in a white 384-well culture plate (cat. no. 781080, Greiner Bio-One) and allowed to rest for at least 5 hours at 37° C., 95% humidity, and 5% CO2. 5 μl compound solution was added to the cells and incubation was continued for 120 hours (5 days), followed by addition of 24 μl ATPlite 1Step™ (PerkinElmer, Groningen, The Netherlands) solution was added to each well. Luminescence was recorded on an Envision multimode reader. The cell signal at the start of incubation was recorded separately in order to distinguish between cell population growth and cell death. In addition, maximum growth was determined by incubation of a duplicate without compound in the presence of 0.3% DMSO. Percentage growth was used as the main y-axis signal.

full-length BTK C481S enzyme, sequence (Q06187 whole entry C481S): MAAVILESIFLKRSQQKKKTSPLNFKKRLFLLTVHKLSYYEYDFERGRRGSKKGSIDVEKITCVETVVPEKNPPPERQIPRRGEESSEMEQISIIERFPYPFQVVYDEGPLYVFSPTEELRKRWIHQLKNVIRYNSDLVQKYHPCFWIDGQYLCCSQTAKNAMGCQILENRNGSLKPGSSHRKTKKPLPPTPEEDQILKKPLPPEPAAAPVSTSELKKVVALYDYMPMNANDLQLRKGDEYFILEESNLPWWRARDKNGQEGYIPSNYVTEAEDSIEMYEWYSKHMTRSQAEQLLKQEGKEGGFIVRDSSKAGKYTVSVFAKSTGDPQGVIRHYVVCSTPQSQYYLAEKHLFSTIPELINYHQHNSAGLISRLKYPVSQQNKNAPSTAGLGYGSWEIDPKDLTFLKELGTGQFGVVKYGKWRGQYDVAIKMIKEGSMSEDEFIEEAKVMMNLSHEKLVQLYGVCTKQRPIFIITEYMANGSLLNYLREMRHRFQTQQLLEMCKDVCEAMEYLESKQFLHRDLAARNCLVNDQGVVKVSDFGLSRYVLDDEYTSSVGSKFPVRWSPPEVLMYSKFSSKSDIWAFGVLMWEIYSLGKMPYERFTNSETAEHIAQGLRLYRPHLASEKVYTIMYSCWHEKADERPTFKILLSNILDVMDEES
full-length wt-BTK enzyme, sequence (Q06187 whole entry): as the sequence (Q06187 whole entry C481S) above, with S481C counted along it

Compound	IC50 [1] [nM]	IC50 [2] [nM]	IC50 [3] [nM]	IC50 [4] [nM]	IC50 [5] [nM]
C[C@@H]1CCn2nc(-c3ccc(C(=O)Nc4cc(C(F)(F)F)ccn4)cc3)c3c(N)ncc(c32)/C=C/C[C@H](C)OCCC(=O)N1 [Example 73]	< 5	< 5	< 100	100 to 500	< 100
C[C@@H]1CCn2nc(-c3ccc(C(=O)Nc4cc(C(F)(F)F)ccn4)cc3)c3c(N)ncc(c32)/C=C/CCN2CC[C@@H]2C(=O)N1 [Example 74]	< 5	< 5	100 to 1000	500 to 10000	< 100
CC1CCn2nc(-c3ccc(C(=O)Nc4cc(C(F)(F)F)ccn4)cc3)c3c(N)ncc(c32)/C=C/C(O)CCCCC(=O)N1 (centres unmarked) [Example 75]	< 5	< 5	100 to 1000	500 to 10000	< 100
Nc1ncc2c3c1c(-c1ccc(C(=O)Nc4cc(C(F)(F)F)ccn4)cc1)nn3[C@@H]1CCCN(C1)C(=O)CCCC/C=C/2 [Example 77]	5 to 50	5 to 50	100 to 1000	500 to 10000	100 to 1000
Nc1ncc2c3c1c(-c1ccc(C(=O)Nc4cc(C(F)(F)F)ccn4)cc1)nn3[C@@H]1CCCN(C1)C(=O)CCCCC/C=C/2 [Example 78]	< 5	< 5	100 to 1000	500 to 10000	< 100
Nc1ncc2c3c1c(-c1ccc(C(=O)Nc4cc(C(F)(F)F)ccn4)cc1)nn3[C@@H]1CCCN(C1)C(=O)CCCCCCC/C=C/2 [Example 80]	< 5	< 5	< 100	< 100	< 100
Nc1ncc2c3c1c(-c1ccc(C(=O)Nc4cc(C(F)(F)F)ccn4)cc1)nn3[C@@H]1CCCN(C1)C(=O)CCCCCCCC/C=C/2 [Example 81]	< 5	< 5	< 100	100 to 500	< 100
CN1C/C=C/c2cnc(N)c3c(-c4ccc(C(=O)Nc5cc(C(F)(F)F)ccn5)cc4)nn(c23)[C@@H]2CCCN(C2)C(=O)CCCC1 [Example 82]	< 5	< 5	100 to 1000	500 to 10000	< 100
Nc1ncc2c3c1c(-c1ccc(C(=O)Nc4cc(C(F)(F)F)ccn4)cc1)nn3[C@@H]1CCC[C@H](C1)C(=O)NCC/C=C\C2 [Example 86]	5 to 50	50 to 500	100 to 1000	500 to 10000	100 to 1000
Nc1ncc2c3c1c(-c1ccc(C(=O)Nc4cc(C(F)(F)F)ccn4)cc1)nn3[C@@H]1CCC[C@H](C1)NC(=O)COC/C=C\C2 [Example 97b]	5 to 50	< 5	100 to 1000	500 to 10000	< 100
Nc1ncc2c3c1c(-c1ccc(C(=O)Nc4ccccn4)cc1)nn3[C@@H]1CCC[C@H](C1)NC(=O)CCC/C=C\C2 [Example 99b]	5 to 50	5 to 50	100 to 1000	500 to 10000	< 100
Nc1ncc2c3c1c(-c1ccc(C(=O)Nc4cc(C(F)(F)F)ccn4)cc1)nn3[C@@H]1CCC[C@H](C1)NC(=O)CCCCC/C=C\C2 [Example 101b]	< 5	< 5	100 to 1000	500 to 10000	< 100
Nc1ncc2c3c1c(-c1ccc(C(=O)Nc4ccccn4)cc1)nn3[C@@H]1CCC[C@H](C1)NC(=O)CCCCC/C=C\C2 [Example 102b]	5 to 50	< 5	100 to 1000	500 to 10000	< 100
